Reference: PubChem BioAssay (NCI)
“And” between values parts separate entries of the source, which are not always exact repeats. Equal values may be shown once.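 Five compound concentrations were applied to cells in 96-well plates for 48 hours; endpoints were derived by simple linear interpolation of the resulting dose-response curve. The concentration for 50% growth inhibition is given as GI50. TGI: concentration producing complete growth inhibition.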

Tests used:
Experiment in all cases: NCI tumour cell line growth inhibition, 48 h
LOX IMVI melanoma = test system: LOX IMVI melanoma
BT-549 breast = test system: BT-549 breast
CCRF-CEM leukemia = test system: CCRF-CEM leukemia
EKVX NSCLC = test system: EKVX NSCLC
NCI-H226 lung = test system: NCI-H226 lung
UACC-62 melanoma = test system: UACC-62 melanoma
OVCAR-8 ovarian = test system: OVCAR-8 ovarian
786-0 renal = test system: 786-0 renal
NCI-H23 lung = test system: NCI-H23 lung
TK-10 renal = test system: TK-10 renal

| SMILES | GI50 (LOX IMVI melanoma) [µM] | TGI (LOX IMVI melanoma) | GI50 (BT-549 breast) [µM] | TGI (BT-549 breast) [µM] | GI50 (CCRF-CEM leukemia) [µM] | TGI (CCRF-CEM leukemia) | GI50 (EKVX NSCLC) [µM] | TGI (EKVX NSCLC) | GI50 (NCI-H226 lung) [µM] | TGI (NCI-H226 lung) | GI50 (UACC-62 melanoma) | TGI (UACC-62 melanoma) | GI50 (OVCAR-8 ovarian) | TGI (OVCAR-8 ovarian) | GI50 (786-0 renal) | TGI (786-0 renal) | GI50 (NCI-H23 lung) | TGI (NCI-H23 lung) | GI50 (TK-10 renal) | TGI (TK-10 renal) [µM] |
| --- | --- | --- | --- | --- | --- | --- | --- | --- | --- | --- | --- | --- | --- | --- | --- | --- | --- | --- | --- | --- |
| NCCCn1c2c(c3ccc([N+](=O)[O-])cc3c1=O)C(=O)c1cc(I)ccc1-2 | < 0.01 | 1.39 µM | 0.931 | 2.51 | < 0.01 | 0.279 µM | 0.79 | 2.32 µM | 0.786 | 26.2 µM | < 0.01 µM | 1.21 µM | 0.0268 µM | 0.234 µM | 0.021 µM | 1.14 µM | 0.0343 µM | 1.22 µM |  |  |
| CC(C)=CCC1=C(O)c2ccccc2C(=O)C1=O |  | > 100 µM |  | > 100 |  | > 100 µM and 18.5 µM | 57.7 | > 100 µM |  | > 100 µM | > 100 µM and 13.4 µM | > 100 µM | > 100 µM and 26.7 µM and 20.8 µM | > 100 µM | > 100 µM and 21.6 µM and 26.1 µM | > 100 µM | > 100 µM and 23.5 µM and 33.6 µM | > 100 µM and 69.7 µM | > 100 µM and 37.8 µM and 87.1 µM | > 100 |
| NC(N)=Nc1nc2ccccc2o1 | > 100 | > 100 µM | > 100 | > 100 | > 100 | > 100 µM | > 100 | > 100 µM | > 100 | > 100 µM | > 100 µM | > 100 µM | 49.2 µM | > 100 µM | > 100 µM | > 100 µM | > 100 µM | > 100 µM | > 100 µM | > 100 |
| N#CC(I)CS(=O)(=O)c1ccccc1 (stereo unspecified) | 14.8 | 28.3 µM | 18.8 | 32.9 |  |  | 19.4 | 44.2 µM | 17.9 | 37.8 µM | 16.6 µM | 30.3 µM | 17.4 µM | 32.2 µM | 19.1 µM | 33.2 µM | 16.7 µM | 31.7 µM | 1.75 µM | 3.3 |
| COc1cc2c3c(n(C)c(=O)c2cc1OC)-c1cc2c(cc1C3=O)OCO2 |  | > 73 µM |  | > 100 |  | 22.5 µM |  | > 100 µM |  | > 100 µM |  | 32.4 µM |  | > 100 µM |  | > 77.7 µM |  | 37 µM |  | > 100 |
| C[C@H](CCOc1cccc(CC(=O)O)c1)N(Cc1cccc(C(F)(F)F)c1Cl)CC(c1ccccc1)c1ccccc1 | 5.13 | 18.5 µM | 5.39 | 20 | 3.69 | 20.1 µM | 4.04 | 19.1 µM | 4.49 | 21.5 µM | 2.72 µM | 8.44 µM | 5.83 µM | 25.6 µM | 5.54 µM | 19.4 µM | 4.5 µM | 19.2 µM | 10.3 µM | 23.1 |
| COC(=O)C1=CN(CC2=CC(=O)C(C)=CC2=O)C=C(C(=O)OC)C1c1ccccc1OC | 21.4 | 42.9 µM | 17.4 | 41 | 5.48 | 14.1 µM | 28.8 | > 100 µM | 16.4 | 41.5 µM | 13.3 µM | 27.5 µM | 17.6 µM | 38.9 µM | 15.1 µM | 28.9 µM | 19.5 µM | 45.6 µM | 16.7 µM | 35.4 |
| COc1c(C)c(OCC=C(C)C)cc(CO)c1CO |  | > 100 µM |  | > 100 |  | > 100 µM |  | > 100 µM |  | > 100 µM |  | > 100 µM |  | > 100 µM |  | > 100 µM |  | > 100 µM |  | > 100 |
| Cc1nc2sccn2c1-c1nc2sccn2c1/C=C1/C(=O)Nc2ccccc21 | 3.01 | > 100 µM | 1.85 | 7.27 | 3.79 | > 100 µM | 7.45 | 55.3 µM | 9.79 | > 100 µM | 5.15 µM | > 100 µM | 11.4 µM | > 100 µM | 1.79 µM | 24.7 µM | 9.44 µM | > 100 µM | 13.5 µM | > 100 |
| COc1ccc(CNc2c3ccccc3nc3ccccc23)cc1F | 1.76 | 3.63 µM | 4.88 | 18.3 | 3.81 | 35.6 µM | 3.59 | 14.5 µM | 2.85 | 10.4 µM | 2.97 µM | 12.9 µM | 3.52 µM | 19.4 µM | 3.6 µM | 13.7 µM | 2.74 µM | 12.9 µM | 3.55 µM | 15.7 |
| COc1ccc(-c2cc(=O)oc3c4c(ccc23)OCN(Cc2ccc(F)cc2)C4)cc1 | 16.7 | 32.3 µM | 14.6 | 31.3 | 25.8 | 82 µM |  |  | 18.2 | 54.5 µM | 14.7 µM | 29.3 µM | 17.2 µM | 37.7 µM | 15.1 µM | 32.8 µM | 20.5 µM | 49.4 µM | 16.1 µM | 49.3 |
| NC(=S)N/N=C/c1ncccc1O | 5.29 | 98.7 µM and 54.6 µM | 1.58 | > 1000 | 1.15 | 21.8 µM | 8.58 | > 92.8 µM and 28.1 µM | 4.3 | 18 µM and 122 µM | 1.67 µM | 11 µM and 9.55 µM | 2.58 µM and 0.813 µM | > 72.2 µM and 135 µM | 0.348 µM | 20.3 µM and 8.34 µM | 1.38 µM | 33.4 µM and 29.7 µM | 11.2 µM | 292 |
| Cc1cccc(NC2=C(Cl)C(=O)c3nc(C)ccc3C2=O)c1 | 0.351 | 1.46 µM | 1.41 | 2.77 | 2.29 | > 100 µM | 1.47 | 2.8 µM | 1.1 | 2.78 µM | 1.13 µM | 2.49 µM |  |  | 1.79 µM | 3.36 µM | 0.512 µM | 2.13 µM | 2.58 µM | 4.17 |
| Cc1nc2c(Br)cc(Br)cc2c(=O)n1-c1nnc(-c2cccc(Cl)c2Cl)c(N)n1 | 12.9 | 39.9 µM | 29.3 | > 100 | 19.3 | > 100 µM | 22.1 | > 100 µM | 21.3 | 59.6 µM | 13.4 µM | 37.3 µM | 18.7 µM | 60.7 µM | 18.4 µM | 48.2 µM | 23.4 µM | 65.5 µM |  |  |
